# Test results reported in PMC6934184, “Selective DNA-PKcs inhibition extends the therapeutic index of localized radiotherapy and chemotherapy” (The Journal of Clinical Investigation, 2019).
# Target: T1, AURKB (Aurora B) (Homo sapiens, UniProt Q96GD4)
# T1 construct: purchased Thermo Fisher Scientific (Life Technologies) SelectScreen
# Assay: SelectScreen Z'LYTE
# Format: biochemical
# Outline: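 NU5455 was profiled across the SelectScreen Broad panel of kinase activity and binding assays. Z'LYTE reactions such as CSF1R ran at apparent Km ATP, while the Adapta CAMK1 assay used ATP listed as 10. Values are given as percent.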
# T1 sequence (Q96GD4 whole entry): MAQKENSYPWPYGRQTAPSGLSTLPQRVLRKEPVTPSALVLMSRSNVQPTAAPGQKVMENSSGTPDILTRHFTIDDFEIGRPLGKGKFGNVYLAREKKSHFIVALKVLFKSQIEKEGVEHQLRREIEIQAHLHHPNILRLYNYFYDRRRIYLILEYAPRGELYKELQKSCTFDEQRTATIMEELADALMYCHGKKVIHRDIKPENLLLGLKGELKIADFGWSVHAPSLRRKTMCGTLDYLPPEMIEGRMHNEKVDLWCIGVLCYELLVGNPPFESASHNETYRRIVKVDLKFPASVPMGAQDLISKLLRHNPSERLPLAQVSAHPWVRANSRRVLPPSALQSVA
structure (smiles),measurement,value
CN(C(=O)CN1CCOCC1)c1ccc2sc3c(-c4cccc5c(=O)cc(N6CC7CCC(C6)O7)oc45)cccc3c2c1 [NU5455],inhibition at 1 µM,1.7%
